Assays:
[1] = Gelled deodorant stick blends, silica stabilized vs non-stabilized nanoplates vs silver salt: settling, peak resonance shift, hue; format: physicochemical; details: Table A blends
Procedure: Gelled sticks with silver nanoplates were prepared by blending water, dipropylene glycol and propylene glycol components, heating the resulting blends to 85° C., adding the poloxamine to the heated blend and mixing until clear, adding the sodium stearate to the heated blends and again mixing until clear, cooling the blends to 75° C. and adding the 2-amino-2-methylpropan-1-ol with agitation, cooling the blends to 71-73° C., and mixing in the remaining ingredients. Non-stabilized silver nanoplates and silica stabilized silver nanoplates were prepared according to the methods in example 1 and 2 respectively and added into separate blends. A silver salt was added to a separate blend. The blends were then allowed to cool to room temperature and gel.
A 100 microliter aliquot of from non-stabilized and silica stabilized silver blend solutions was added to a 96 well plate and allowed to cool to room temperature and gel.

[2] = Gelled deodorant stick blends, PVP nanoplates with or without borate vs silver salt: settling, peak resonance shift, hue; format: physicochemical; details: Table B blends
Procedure: Gelled sticks with silver nanoplates were prepared by blending water, dipropylene glycol and propylene glycol components, heating the resulting blends to 85° C., adding the poloxamine to the heated blend and mixing until clear, adding the sodium stearate to the heated blends and again mixing until clear, cooling the blends to 75° C. and adding the 2-amino-2-methylpropan-1-ol with agitation, cooling the blends to 71-73° C., and then mixing in the remaining ingredients. PVP and borate stabilized silver nanoplates were prepared according to the methods in example 1 with the addition of PVP and borate into the mixture after synthesis. In one blend was added borate prior to adding silver nanoplates, in another blend borate was not added. A silver salt was added to a separate blend with no borate. The blends were then allowed to cool to room temperature and gel.
A 100 microliter aliquot from non-stabilized and silica stabilized silver blend solutions was added to a 96 well plate and allowed to cool to room temperature and gel.

[3] = EPA Reference Dose for Chronic Oral Exposure (RfD) for silver and intravenous conversion; parameters: species or system human population
Excerpt: We estimate less than half of the silver has diffused from the silicone into the IV fluid over 7 days based on the silver nanoplate plasmonic peak wavelength, which corresponds directly with the diameter decrease in the etched silver nanoplates. Even if all of the silver had diffused from the silicone into the IV fluid during 7 days, this would correspond to a daily body absorption of 1.6 micrograms per day. In the United States, the EPA has set a Reference Dose for Chronic Oral Exposure (RfD) of 5 micgrams per Kg per day for silver. RfD is the daily exposure to the human population (including sensitive subgroups) that is likely to be without an appreciable risk of deleterious effects during a lifetime. Oral dose is estimated based on a conversion of 4% absorption of dietary silver into the body. Thus, an intravenous RfD would be approximately 0.2 micrograms per day of silver. For a 70 Kg person, this corresponds to 14 micrograms per day.

[4] = EPA, United States; cited from earlier work

## [Cl][Ag] [silver chloride, Silver Chloride]
[1]
  settling in gelled deodorant blend: exhibited settling
[2]
  settling in gelled deodorant blend: exhibited settling

## [Ag] [silver]
[3]; 70 Kg person
  intravenous RfD for a 70 Kg person: 14 micrograms per day
[3]; conversion of 4% absorption of dietary silver
  intravenous RfD: approximately 0.2 micrograms per day
[4]
  Reference Dose for Chronic Oral Exposure (RfD): 5 micgrams per Kg per day
